Laboratory results published in ChEMBL document CHEMBL3832066, “DailyMed|setid=891194e8-7083-4438-8d27-c72f2372e40f | ISOSORBIDE MONONITRATE - isosorbide mononitrate tablet, extended release|Mckesson Contract Packaging”.
“And” between values parts separate entries of the source, which are not always exact repeats. Equal values may be shown once.

Assays:
Assay type in all cases: ADME, organism-based
[1] = system: Homo sapiens; test: (§1) Pharmacokinetic parameters for Isosorbide mononitrate after single oral dose administration of 60 mg Isosorbide mononitrate solution or table to subjects.; set-up: dose 60 mg, route oral; settings: in vivo, po, dosed compound id 10, dosed compound name ISOSORBIDE MONONITRATE, regimen Single dose, tissue Plasma
[2] = as §1; set-up: dose 60 mg, route oral; settings: human, in vivo, dosed compound id 10, dosed compound name ISOSORBIDE MONONITRATE, regimen Single dose, tissue Plasma
[3] = system: Homo sapiens; test: (§2) Pharmacokinetic parameters for Isosorbide mononitrate after multiple oral dose administrations of 60 and 120 mg Isosorbide mononitrate tablets to subjects; set-up: dose 120 mg, dose 60 mg, route oral; settings: in vivo, po, dosed compound id 10, dosed compound name ISOSORBIDE MONONITRATE, regimen Multiple dose, tissue Plasma
[4] = as §2; set-up: dose 120 mg, dose 60 mg, route oral; settings: human, in vivo; dose 60 mg, dosed compound id 10, dosed compound name ISOSORBIDE MONONITRATE, regimen Multiple dose, route oral, tissue Plasma

SMILES: O=[N+]([O-])O[C@@H]1CO[C@H]2[C@@H]1OC[C@@H]2O [ISOSORBIDE MONONITRATE]
- CL/F ([1]; dose 60 mg): 120 to 122 mL/min
- t1/2 ([1]; dose 60 mg): 4.8 to 5.1 h
- AUC [1]: 8190 to 8310 ng·h/mL
- Cmax [1]: 424 to 541 ng/mL and 1240 to 1530 ng/mL
- AUC ([2]; po, 60 mg): 5990 to 7450 ng·h/mL
- CL/F ([2]; dose 60 mg, route oral): 151 to 187 mL/min
- half-life ([2]; dose 60 mg, route oral): 6.3 to 6.6 h
- CL/F ([3]; dose 120 mg): 119 to 140 mL/min
- Tmax ([3]; dose 120 mg): 3.1 to 3.2 h
- AUC [3]: 6620 to 7560 ng·h/mL and 14200 to 16800 ng·h/mL
- Cmax [3]: 557 to 572 ng/mL and 1150 to 1180 ng/mL
- CL/F [4]: 132 to 151 mL/min
- Tmax [4]: 2.9 to 4.2 h
- half-life [4]: 6.2 to 6.3 h
